For orientation: melting point means the temperature of the solid-liquid transition.

SMILES strings stand for the structures.

The text below walks through data of US7141585B2 (dated 2006).

As for `CCOC(=O)c1c(Cc2cc(Cl)cc(Cl)c2)c(C)nn1CCO`, the melting point lay within 105.8 to 107.5 °C.
